The record followed here is publication PMC3970309 (Infection & Chemotherapy, 2014).

The data set is classed as in vivo, human. Particulars: percent; CLCr > 60 mg/dL (normal renal function), n = 22.

teicoplanin: the “Patients with plasma teicoplanin >10mg/L” value was determined as 63%.
